Data published in ChEMBL document CHEMBL3997785, “Optimization of 2-Anilino 4-Amino Substituted Quinazolines into Potent Antimalarial Agents with Oral in Vivo Activity” (J Med Chem, 2017).
pEC50: −log10 of the molar value. The source made the active and inactive calls. The rule behind the calls is not given here.

Tests used:
[1] = Half life in human liver microsomes at 1 uM in presence of NADPH by LC-MS method; format: ADME, microsome
[2] = test system: Plasmodium falciparum; experiment: Antimalarial activity against Plasmodium falciparum NF54 harboring pfs16-LUC-GFP late stage 4 to 5 gametocytes after 48 hrs by MitoTracker Red staining based confocal microscopy; format: functional; settings: NF54, 48 h
[3] = Ratio of EC50 for Plasmodium falciparum NF54-pfs16-LUC-GFP ring stage gametocytes to EC50 for Plasmodium falciparum 3D7 asexual blood stage infected in human erythrocytes; format: functional
[4] = test system: Plasmodium falciparum; experiment: Antimalarial activity against synchronous culture of Plasmodium falciparum 3D7 ring stage parasite infected in human erythrocytes incubated for 24 hrs followed by compound wash out and measured after 24 hrs by NanoGlo-reagent based bioluminescence assay; format: functional, cell-based; settings: 3D7, 24 h
[5] = test system: Plasmodium falciparum; experiment: Antimalarial activity against synchronous culture of Plasmodium falciparum 3D7 ring stage parasite infected in human erythrocytes incubated for 3 hrs followed by compound wash out and measured after 24 hrs by NanoGlo-reagent based bioluminescence assay; format: functional, cell-based
[6] = Ratio of EC50 for Plasmodium falciparum NF54-pfs16-LUC-GFP early stage gametocytes to EC50 for Plasmodium falciparum 3D7 asexual blood stage infected in human erythrocytes; format: functional
[7] = test system: Plasmodium berghei; experiment: Antimalarial activity against Plasmodium berghei ANKA infected Swiss black mouse model at 20 mg/kg administered via oral gavage for 4 days starting 4 hrs post infection by microscopic method; format: functional
[8] = test system: Plasmodium falciparum; experiment: Antimalarial activity against Plasmodium falciparum NF54 harboring pfs16-LUC-GFP ring stage gametocytes after 24 hrs by MitoTracker Red staining based confocal microscopy; format: functional; settings: NF54, 24 h
[9] = Hepatic extraction ratio in mouse liver microsomes at 1 uM in presence of NADPH by LC-MS method; format: ADME, microsome; settings: read-out: ERH
[10] = test system: Plasmodium falciparum; experiment: Antimalarial activity against Plasmodium falciparum NF54 harboring pfs16-LUC-GFP early stage 1 to 3 gametocytes after 48 hrs by MitoTracker Red staining based confocal microscopy; format: functional; settings: NF54, 48 h
[11] = test system: Plasmodium falciparum; experiment: Antimalarial activity against chloroquine and mefloquine resistant Plasmodium falciparum W2mef infected in human erythrocytes incubated for 72 hrs by LDH assay; format: functional, cell-based
[12] = Aqueous solubility of the compound at pH 6.5 by nephelometry; format: physicochemical
[13] = Hepatic extraction ratio in human liver microsomes at 1 uM in presence of NADPH by LC-MS method; format: ADME, microsome; settings: read-out: ERH
[14] = Selectivity index, ratio of EC50 for human HepG2 cells to EC50 for Plasmodium falciparum 3D7 asexual blood stage infected in human erythrocytes; format: toxicity, cell-based; settings: read-out: Ratio EC50
[15] = test system: Plasmodium falciparum; experiment: Antimalarial activity against synchronous culture of Plasmodium falciparum 3D7 infected in human erythrocytes assessed as development arrest at ring stage of asexual life cycle leading to parasite death at 10 times EC50 up to 48 hrs by Giemsa-staining based assay relative to control; format: functional, cell-based
[16] = Intrinsic clearance in human liver microsomes at 1 uM in presence of NADPH by LC-MS method; format: ADME, microsome; settings: read-out: CLH
[17] = test system: Plasma; experiment: Drug uptake in Plasmodium berghei ANKA infected Swiss black mouse plasma at 20 mg/kg, ip measured after 20 hrs; format: ADME, organism-based; settings: in vivo
[18] = test system: Liver; experiment: Drug metabolism in mouse liver microsomes assessed as mono-oxygenation at 6th position of quinazoline at 1 uM after 60 mins in presence of NADPH by LC-MS method; format: ADME, microsome; settings: 1 h
[19] = test system: Plasmodium falciparum; experiment: Antimalarial activity against Plasmodium falciparum 3D7 infected in human erythrocytes assessed as arrest at trophozoite stage of asexual life cycle leading to parasite death at 10 times EC50 up to 48 hrs by Giemsa-staining based assay relative to control; format: functional, cell-based
[20] = test system: Plasma; experiment: Drug uptake in Plasmodium berghei ANKA infected Swiss black mouse plasma at 20 mg/kg, po via gavage measured after 20 hrs; format: ADME, organism-based; settings: in vivo
[21] = Half life in mouse liver microsomes at 1 uM in presence of NADPH by LC-MS method; format: ADME, microsome
[22] = test system: Plasmodium falciparum; experiment: Antimalarial activity against synchronous culture of Plasmodium falciparum 3D7 ring stage parasite infected in human erythrocytes incubated for 6 hrs followed by compound wash out and measured after 24 hrs by NanoGlo-reagent based bioluminescence assay; format: functional, cell-based
[23] = test system: Liver; experiment: Drug metabolism in mouse liver microsomes assessed as hydro defluorination at 1 uM after 60 mins in presence of NADPH by LC-MS method; format: ADME, microsome; settings: 1 h
[24] = test system: Liver; experiment: Drug metabolism in mouse liver microsomes assessed as N-demethylation of methyl piperidine or piperazine at 1 uM after 60 mins in presence of NADPH by LC-MS method; format: ADME, microsome; settings: 1 h
[25] = test system: Liver; experiment: Drug metabolism in human liver microsomes assessed as mono-oxygenation at 6th position of quinazoline at 1 uM after 60 mins in presence of NADPH by LC-MS method; format: ADME, microsome; settings: 1 h
[26] = test system: Plasmodium falciparum; experiment: Antimalarial activity against Plasmodium falciparum 3D7 asexual blood stage infected in human erythrocytes incubated for 72 hrs by LDH assay; format: functional, cell-based; settings: 3D7, 72 h
[27] = test system: Liver; experiment: Drug metabolism in human liver microsomes assessed as hydro defluorination at 1 uM after 60 mins in presence of NADPH by LC-MS method; format: ADME, microsome; settings: 1 h
[28] = test system: HepG2; experiment: Cytotoxicity against human HepG2 cells assessed as growth inhibition after 48 hrs by Cell Titer-Glo assay; format: cell-based; settings: HepG2, 48 h
[29] = Aqueous solubility of the compound at pH 2 by nephelometry; format: physicochemical
[30] = Intrinsic clearance in mouse liver microsomes at 1 uM in presence of NADPH by LC-MS method; format: ADME, microsome; settings: read-out: CLH
[31] = test system: Plasmodium berghei; experiment: Antimalarial activity against Plasmodium berghei ANKA infected Swiss black mouse at 20 mg/kg, ip administered for 4 days starting 4 hrs post infection by microscopic method; format: functional
[32] = test system: Liver; experiment: Drug metabolism in human liver microsomes assessed as N-demethylation of methyl piperidine or piperazine at 1 uM after 60 mins in presence of NADPH by LC-MS method; format: ADME, microsome; settings: 1 h

Row | Structure (SMILES) | half-life at 1 µM [1] [h] | pEC50 [2] | Ratio EC50 [3] | Ratio EC50 [6] | Activity [7] | pEC50 [8] | hepatic extraction ratio at 1 µM [9] | pEC50 [10] | pEC50 [11] | solubility kinetic [12] [µM] | hepatic extraction ratio at 1 µM [13] | selectivity ratio [14] | Activity [15] | microsomal CLint at 1 µM [16] [µL/min/mg] | Drug uptake [17] | Drug metabolism [18] | Activity [19] | Drug uptake [20] | half-life at 1 µM [21] [h] | Drug metabolism [23] | also measured
1 | CN1CCN(CCNc2nc(Nc3ccc(F)c(Cl)c3)nc3ccccc23)CC1.Cl.Cl | > 4.25 | 5.52 | 10 | 15 - 25 | >90% | 6.75 | 0.55 | 6.49 | 7.31 | 11.3 to 23 | < 0.22 | 240 | Active | < 7 | Active | Metabolite_Detected | inactive | Active | 0.5 | Metabolite_Detected | pEC50 [4]: 6.49; pEC50 [5]: 5.60; Activity [22]: Dose dependent effect; pEC50 [22]: 5.53; Drug metabolism [24]: Metabolite_Detected; Drug metabolism [25]: Metabolite_Detected; pEC50 [26]: 7.59; Drug metabolism [27]: Metabolite_Detected; pEC50 [28]: 5.21; solubility kinetic [29]: > 90 µM; microsomal CLint at 1 µM [30]: 57 µL/min/mg; Activity [31]: >98%; Drug metabolism [32]: Metabolite_Detected
2 | CN1CCC(Nc2nc(Nc3ccc(F)c(Cl)c3)nc3ccccc23)CC1.Cl.Cl | > 4.25 | 5.43 | 10 | 15 - 25 | Active | 6.65 | 0.2 | 6.29 | 7.27 | 11.3 to 23 | < 0.22 | 145 | Active | < 7 | Active | Metabolite_Detected | inactive | Active | 2.48 | Metabolite_Detected | Drug metabolism [24]: Metabolite_Detected; Drug metabolism [25]: Metabolite_Detected; pEC50 [26]: 7.46; Drug metabolism [27]: Metabolite_Detected; pEC50 [28]: 5.29; solubility kinetic [29]: > 90 µM; microsomal CLint at 1 µM [30]: 12 µL/min/mg; Drug metabolism [32]: Metabolite_Detected
